Laboratory results: ChEMBL document CHEMBL1201862, “PubChem BioAssay data set” (2004)
The source made the active and inactive calls.

Key:
[1] = HEp-2 cell cytotoxicity, dose response, cytotoxicity control for RSV inhibitor project, HTS (AID 2410); format: functional; settings: human respiratory syncytial virus
cells [2] = format: functional, cell-based
cells [3] = format: functional, cell-based; remark: listed apart in the source
[4] = target: FAD-linked sulfhydryl oxidase ALR (Homo sapiens, UniProt P55789); experiment: inhibitors of human ALR sulfhydryl oxidase, dose response, biochemical, H2O2 detection, luminescence, cherry-pick (AID 493248)
[5] = Luminescence Cell-Based Dose Confirmation HTS to Identify Activators of 5'UTR Stem-Loop Driven Alpha-Synuclein mRNA Translation in H4 Neuroglioblastoma Cells. [Related pubchem assays: 1829 (Project Summary), 1814 (Primary HTS)]; format: functional
Protein skinhead-1 = target: T1, Protein skinhead-1 (Caenorhabditis elegans, UniProt P34707); format: functional
T1 sequence (P34707 whole entry): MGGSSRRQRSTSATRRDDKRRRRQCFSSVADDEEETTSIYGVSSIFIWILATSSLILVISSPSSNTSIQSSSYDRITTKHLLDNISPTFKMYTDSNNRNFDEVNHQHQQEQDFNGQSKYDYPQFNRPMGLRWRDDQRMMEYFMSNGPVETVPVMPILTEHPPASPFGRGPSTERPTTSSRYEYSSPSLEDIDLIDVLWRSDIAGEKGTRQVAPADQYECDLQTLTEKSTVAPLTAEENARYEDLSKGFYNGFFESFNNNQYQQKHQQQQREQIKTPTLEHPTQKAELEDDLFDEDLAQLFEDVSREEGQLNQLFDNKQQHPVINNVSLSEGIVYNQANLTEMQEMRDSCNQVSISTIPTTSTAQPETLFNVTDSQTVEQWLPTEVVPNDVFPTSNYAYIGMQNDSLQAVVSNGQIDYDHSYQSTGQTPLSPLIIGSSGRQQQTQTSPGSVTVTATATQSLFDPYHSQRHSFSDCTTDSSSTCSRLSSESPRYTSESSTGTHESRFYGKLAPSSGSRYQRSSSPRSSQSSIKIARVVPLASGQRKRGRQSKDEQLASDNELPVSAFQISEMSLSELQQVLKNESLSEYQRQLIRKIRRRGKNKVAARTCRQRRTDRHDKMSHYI

[6] = growth suppression of beta-catenin-knockout colon cells, dose response, cell-based, HCT116, human colon tumor (AID 1045); format: functional;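 note: HCT116 colon tumor cells with beta catenin knocked out; cells exposed to compound for 60 hours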
[7] = growth suppression of PTEN-null colon cells, dose response, cell-based, HCT116 PTEN knockout (AID 1047); format: functional;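 note: HCT116 colon tumor cells with PTEN knocked out; cells exposed to compound for 60 hours before readout; potency for loss of cell viability measured by luminescence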
[8] = control 3'UTR Renilla luciferase suppression, dose response, counter-screen for Shn3 inhibitor project, cell-based, Clone20-Shn3RL, cherry-picked (AID 624133); format: functional
Nonstructural protein 1 = Nonstructural protein 1 (Influenza A virus, UniProt Q194T2); format: functional, Influenza A virus (A/California/07/2009(H1N1))
[9] = Shn3 3'UTR reporter inhibitors, dose response, cell-based, Clone20 osteoblasts, firefly luciferase, cherry-picked (AID 624132); format: functional;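 note: firefly luciferase luminescence from reporter carrying the Shn3 3'UTR in osteoblasts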
[10] = HepG2 cell cytotoxicity, dose response, cytotoxicity control for Shn3 inhibitor project, CellTiter-Glo, cherry-picked (AID 624134); format: functional, cell-based
[11] = target: Peroxisome proliferator-activated receptor gamma/Nuclear receptor coactivator 3 (Homo sapiens, UniProt P37231); experiment: TR-FRET dose response biochemical High Throughput Screening assay for agonists of the steroid receptor coactivator 3 (SRC-3) recruitment by the peroxisome proliferator-activated receptor gamma (PPAR gamma): non-selective agonists. [Related pubchem assays: 1301 (Confirmation screen.), 1048 (Primary screen.)]; format: functional
[12] = target: Peroxisome proliferator-activated receptor gamma/Nuclear receptor coactivator 2 (Homo sapiens, UniProt P37231); experiment: (§1) TR-FRET dose response biochemical High Throughput Screening assay for agonists of the steroid receptor coactivator 2 (SRC-2) recruitment by the peroxisome proliferator-activated receptor gamma (PPAR gamma): non-selective agonists. [Related pubchem assays: 1297, 1032 ]; format: functional
[13] = target: Peroxisome proliferator-activated receptor gamma/Nuclear receptor coactivator 1 (Homo sapiens, UniProt P37231); experiment: as §1, with “1 (SRC-1)” for “2 (SRC-2)”, “assays (depositor defined):AID1300, AID1808, AID504735, AID631]” for “assays: 1297, 1032 ]”; format: protein assay
INS1 = experiment: beta cell apoptosis inhibitors, cytokine rescue, dose response, luminescence, retest (AID 449756); format: functional, cell-based; settings: Rattus norvegicus;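 note: cell death triggered by IL-1 beta plus TNF-alpha plus IFN-gamma mixture; protective hits raise ATP signal compared with cytokine alone wells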
[14] = cytotoxicity toward NIH3T3 fibroblasts, dose response, counter-screen, cell-based, ATP luminescence, mouse fibroblasts (AID 2010); format: functional;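 note: cells exposed to compound for about 90 hours before reading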
[15] = inhibitors of intracellular T. cruzi replication, confirmation, NIH3T3 host cells, beta-gal luminescence (AID 2044); format: functional, cell-based;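 note: intracellular parasites grown in NIH/3T3 mouse fibroblasts as host cells; luminescent beta-galactosidase reporter signal from transgenic T. cruzi replicating inside host cells; inhibitors lower the luminescence signal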
H4 = experiment: Luminescence Cell-Based Dose Response HTS to Identify Activators of 5'UTR Stem-Loop Driven Prion Protein mRNA Translation in H4 Neuroglioblastoma Cells. [Related pubchem assays: 1829 (Project Summary), 1814 (Primary HTS)]; format: functional; settings: Homo sapiens
[16] = Luminescence Cell-Based Dose Response HTS to Identify Activators of Luciferase Translation or Activity in H4 […] Cells. [Related pubchem assays: 1829 (Project Summary), 1814 (Primary HTS)]; format: functional
Streptokinase A = target: T2, Streptokinase A (Streptococcus pyogenes serotype M1, UniProt P10520); experiment: S. pyogenes streptokinase expression inhibitors, potency, dose response, plasminogen activation absorbance, OD405 (AID 1914); format: functional, Streptococcus pyogenes M1 GAS;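 note: secreted streptokinase activity via plasminogen activation per viability signal from cell pellet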
T2 sequence (P10520 whole entry): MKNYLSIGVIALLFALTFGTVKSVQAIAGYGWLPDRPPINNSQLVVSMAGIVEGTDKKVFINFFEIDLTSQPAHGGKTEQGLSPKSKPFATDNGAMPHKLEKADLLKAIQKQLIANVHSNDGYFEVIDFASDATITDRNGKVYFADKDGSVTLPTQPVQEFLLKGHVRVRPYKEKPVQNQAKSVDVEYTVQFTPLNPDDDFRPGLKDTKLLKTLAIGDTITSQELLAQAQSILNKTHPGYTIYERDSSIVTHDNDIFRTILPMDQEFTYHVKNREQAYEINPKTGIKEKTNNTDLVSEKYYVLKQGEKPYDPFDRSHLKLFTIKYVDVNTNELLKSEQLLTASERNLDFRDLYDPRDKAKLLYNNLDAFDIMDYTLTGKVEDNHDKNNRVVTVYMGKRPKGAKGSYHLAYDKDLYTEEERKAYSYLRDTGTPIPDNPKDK

[17] = system: Streptococcus sp. 'group A'; experiment: growth inhibition of control SK(-) GAS strain, dose response, counter-screen for streptokinase expression inhibitor project, luminescence, kanamycin, BacTiterGlo, confirmation (AID 1900); format: functional, organism-based
Streptococcus = experiment: Group A Streptococcus viability loss, dose response, counter-screen for streptokinase expression inhibitor project, luminescence, BacTiterGlo (AID 1915); format: functional, organism-based;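 note: potency for reduction of bacterial viability or growth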

Peroxisome proliferator-activated receptor gamma/Nuclear receptor coactivator 3, sequence (P37231 whole entry): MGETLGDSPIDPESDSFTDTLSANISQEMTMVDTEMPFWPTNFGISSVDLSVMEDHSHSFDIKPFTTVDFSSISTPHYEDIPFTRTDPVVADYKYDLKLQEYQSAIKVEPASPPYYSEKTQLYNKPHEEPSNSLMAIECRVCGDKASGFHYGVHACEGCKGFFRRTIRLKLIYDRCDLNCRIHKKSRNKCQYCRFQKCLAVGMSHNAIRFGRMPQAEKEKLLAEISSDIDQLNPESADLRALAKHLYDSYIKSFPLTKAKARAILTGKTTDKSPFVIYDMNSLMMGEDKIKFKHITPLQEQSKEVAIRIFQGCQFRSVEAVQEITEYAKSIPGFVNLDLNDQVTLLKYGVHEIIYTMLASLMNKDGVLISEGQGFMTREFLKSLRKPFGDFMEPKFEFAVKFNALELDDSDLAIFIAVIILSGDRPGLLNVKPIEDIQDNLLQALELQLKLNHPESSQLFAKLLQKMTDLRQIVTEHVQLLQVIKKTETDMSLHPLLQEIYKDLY
Peroxisome proliferator-activated receptor gamma/Nuclear receptor coactivator 3, sequence (Q9Y6Q9 whole entry, further chain): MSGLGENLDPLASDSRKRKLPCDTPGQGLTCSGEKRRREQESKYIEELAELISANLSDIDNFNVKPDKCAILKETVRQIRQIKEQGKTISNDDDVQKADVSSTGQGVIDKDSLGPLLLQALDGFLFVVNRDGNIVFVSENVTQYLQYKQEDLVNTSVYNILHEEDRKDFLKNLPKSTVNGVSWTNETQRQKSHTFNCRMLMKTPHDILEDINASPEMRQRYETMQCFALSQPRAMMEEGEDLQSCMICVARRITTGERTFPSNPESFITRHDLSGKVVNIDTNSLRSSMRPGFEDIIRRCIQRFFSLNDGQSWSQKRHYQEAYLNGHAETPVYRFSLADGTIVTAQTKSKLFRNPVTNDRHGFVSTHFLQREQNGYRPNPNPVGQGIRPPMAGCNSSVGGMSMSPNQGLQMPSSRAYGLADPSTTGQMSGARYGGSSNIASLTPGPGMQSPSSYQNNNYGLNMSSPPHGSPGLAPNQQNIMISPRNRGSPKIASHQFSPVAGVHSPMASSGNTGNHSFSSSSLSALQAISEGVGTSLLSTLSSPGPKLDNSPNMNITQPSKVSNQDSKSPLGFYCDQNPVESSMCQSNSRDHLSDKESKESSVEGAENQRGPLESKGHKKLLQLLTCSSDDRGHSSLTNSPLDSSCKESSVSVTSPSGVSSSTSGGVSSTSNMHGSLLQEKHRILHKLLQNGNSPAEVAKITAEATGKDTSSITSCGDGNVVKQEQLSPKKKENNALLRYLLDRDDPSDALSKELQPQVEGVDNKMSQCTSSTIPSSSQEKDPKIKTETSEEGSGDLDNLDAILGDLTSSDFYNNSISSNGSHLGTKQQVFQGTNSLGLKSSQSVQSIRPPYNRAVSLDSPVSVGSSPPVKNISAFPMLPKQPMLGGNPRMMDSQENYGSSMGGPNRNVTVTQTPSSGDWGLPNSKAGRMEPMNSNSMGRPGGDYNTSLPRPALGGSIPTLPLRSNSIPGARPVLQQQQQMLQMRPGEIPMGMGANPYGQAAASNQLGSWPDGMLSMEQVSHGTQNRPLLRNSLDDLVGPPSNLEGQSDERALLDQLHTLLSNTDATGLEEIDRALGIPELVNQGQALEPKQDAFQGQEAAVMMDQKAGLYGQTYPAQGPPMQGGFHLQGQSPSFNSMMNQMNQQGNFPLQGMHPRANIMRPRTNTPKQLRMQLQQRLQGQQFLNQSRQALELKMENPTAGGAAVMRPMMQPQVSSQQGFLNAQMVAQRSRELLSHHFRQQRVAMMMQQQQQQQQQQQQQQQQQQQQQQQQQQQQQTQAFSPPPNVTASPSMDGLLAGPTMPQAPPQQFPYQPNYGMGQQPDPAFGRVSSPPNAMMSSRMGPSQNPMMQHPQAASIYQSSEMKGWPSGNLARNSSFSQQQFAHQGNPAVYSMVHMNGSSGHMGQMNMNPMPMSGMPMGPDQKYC
Peroxisome proliferator-activated receptor gamma/Nuclear receptor coactivator 1, sequence (P37231 whole entry): as the sequence (P37231 whole entry) above
Peroxisome proliferator-activated receptor gamma/Nuclear receptor coactivator 1, sequence (Q15788 whole entry, further chain): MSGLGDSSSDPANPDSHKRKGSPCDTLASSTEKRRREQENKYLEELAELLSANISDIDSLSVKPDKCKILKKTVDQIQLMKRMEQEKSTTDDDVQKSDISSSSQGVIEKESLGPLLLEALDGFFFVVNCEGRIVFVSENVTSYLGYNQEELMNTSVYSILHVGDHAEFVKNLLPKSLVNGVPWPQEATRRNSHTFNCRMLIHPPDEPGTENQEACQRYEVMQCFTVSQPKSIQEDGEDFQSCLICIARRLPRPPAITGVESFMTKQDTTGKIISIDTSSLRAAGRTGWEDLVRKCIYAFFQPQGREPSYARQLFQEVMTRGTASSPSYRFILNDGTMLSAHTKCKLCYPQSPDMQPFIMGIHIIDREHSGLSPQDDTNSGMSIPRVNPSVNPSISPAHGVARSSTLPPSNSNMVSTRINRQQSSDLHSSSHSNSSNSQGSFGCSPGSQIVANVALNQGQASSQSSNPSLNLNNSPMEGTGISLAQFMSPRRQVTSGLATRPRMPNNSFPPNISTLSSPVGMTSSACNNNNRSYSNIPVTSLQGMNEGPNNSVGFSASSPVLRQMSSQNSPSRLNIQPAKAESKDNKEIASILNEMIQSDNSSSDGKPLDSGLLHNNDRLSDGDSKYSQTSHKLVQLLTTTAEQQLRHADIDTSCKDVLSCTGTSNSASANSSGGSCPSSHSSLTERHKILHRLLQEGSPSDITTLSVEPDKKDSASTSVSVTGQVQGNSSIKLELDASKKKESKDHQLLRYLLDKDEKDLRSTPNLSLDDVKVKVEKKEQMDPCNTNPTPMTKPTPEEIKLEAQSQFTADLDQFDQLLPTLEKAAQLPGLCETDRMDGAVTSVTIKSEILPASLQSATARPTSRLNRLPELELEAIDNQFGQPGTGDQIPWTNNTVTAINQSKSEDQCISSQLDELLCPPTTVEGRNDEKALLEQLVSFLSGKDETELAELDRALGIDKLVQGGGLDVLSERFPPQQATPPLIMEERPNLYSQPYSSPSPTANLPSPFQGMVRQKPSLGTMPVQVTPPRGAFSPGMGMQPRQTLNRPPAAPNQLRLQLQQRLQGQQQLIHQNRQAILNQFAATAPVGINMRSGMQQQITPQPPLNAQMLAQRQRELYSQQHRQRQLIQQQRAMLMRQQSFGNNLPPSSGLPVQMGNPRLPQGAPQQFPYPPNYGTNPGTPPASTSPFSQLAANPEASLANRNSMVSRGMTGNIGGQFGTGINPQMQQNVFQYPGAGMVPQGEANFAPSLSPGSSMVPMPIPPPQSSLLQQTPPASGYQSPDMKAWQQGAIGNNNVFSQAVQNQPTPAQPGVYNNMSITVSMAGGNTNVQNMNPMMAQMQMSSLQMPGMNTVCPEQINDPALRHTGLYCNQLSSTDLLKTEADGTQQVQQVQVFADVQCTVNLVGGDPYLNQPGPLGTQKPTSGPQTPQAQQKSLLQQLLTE
Nonstructural protein 1, sequence (Q194T2 whole entry): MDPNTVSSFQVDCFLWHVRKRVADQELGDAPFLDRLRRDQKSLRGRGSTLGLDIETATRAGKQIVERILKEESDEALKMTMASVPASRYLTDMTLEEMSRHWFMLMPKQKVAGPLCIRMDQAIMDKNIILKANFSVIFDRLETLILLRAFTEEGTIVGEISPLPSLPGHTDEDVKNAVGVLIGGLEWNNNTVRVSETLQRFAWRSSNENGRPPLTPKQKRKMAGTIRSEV
FAD-linked sulfhydryl oxidase ALR, sequence (P55789 whole entry): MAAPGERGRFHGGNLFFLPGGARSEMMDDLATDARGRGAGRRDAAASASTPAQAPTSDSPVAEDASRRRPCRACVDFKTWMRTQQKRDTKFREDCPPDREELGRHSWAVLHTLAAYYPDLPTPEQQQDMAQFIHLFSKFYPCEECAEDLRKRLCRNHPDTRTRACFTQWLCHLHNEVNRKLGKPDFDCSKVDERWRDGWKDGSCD

## OCCCn1c(C2CCCN2c2nc(-c3ccc(F)cc3)cs2)nc2cc(C(F)(F)F)ccc21 (configuration not stated)
[1]
  CC50: 16.8 µM (active)

## Cc1ccc(C)c(CNS(=O)(=O)c2ccc3c(c2)C(C)(C)C(=O)N3C)c1
Cells [2]
  EC50: > 350 µM (not active)
Cells [3]
  EC50: > 350 µM (not active)

## Cc1cc(C)c2c(-n3cccc3)c(C(=O)NNS(=O)(=O)c3ccc(Br)cc3)sc2n1
[1]
  CC50: 19 µM (active)
[4]
  AC50: 74.4 µM (active)

## FC(F)Oc1ccc(C2NC(c3ccccc3)=NO2)cc1 (configuration not stated)
[5]
  EC50: 0.115 µM (active)
Protein skinhead-1
  IC50: 80.6 µM (inactive)

## CC(OC(=O)c1ncc(Cl)c(Cl)c1Cl)C(=O)NC1(C#N)CCCCC1 (configuration not stated)
Cells [2]
  EC50: > 350 µM (not active)
Cells [3]
  EC50: > 350 µM (not active)

## COc1ccccc1N1CCN(c2cc(=O)n(Cc3ccc(F)cc3)c(=O)[nH]2)CC1
[6]
  EC50: 10.1 µM (active)
[7]
  EC50: 10.5 µM (active)

## COc1ccccc1C(=O)Nc1ccc(S(=O)(=O)N2CCc3ccccc32)cc1
[1]
  CC50: 48.7 µM (active)

## CSc1sc(C(=O)N2CCCCC2)c(-c2cccs2)c1C#N
Cells [2]
  EC50: > 350 µM (not active)
Cells [3]
  EC50: > 350 µM (not active)

## CC(C(=O)Nc1ccccc1-c1ccccc1)N(C)Cc1nc(O)c2ccccc2n1 (configuration not stated)
Cells [2]
  EC50: > 350 µM (not active)
Cells [3]
  EC50: > 350 µM (not active)

## O=S(=O)(c1ccccc1)N1CCC(c2nc(O)c3nnn(Cc4cccc(Cl)c4)c3n2)CC1
[1]
  CC50: 22.3 µM (active)

## Oc1cc(Nc2cccnc2)cc2cccnc12
[8]
  AC50: 4.72 µM (active)
Nonstructural protein 1
  IC50: 8.89 µM (active)
[9]
  AC50: 2.12 µM (active)
[10]
  AC50: 38.8 µM (active)

## CCn1c(=O)cc(SCC(=O)N(C)Cc2ccccc2)c2ccccc21
[11]
  EC50: > 79.4 µM (not active)
[12]
  EC50: > 79.4 µM (not active)
[13]
  EC50: > 79.4 µM (inactive)

## CC(=O)c1cccc(NS(=O)(=O)c2ccc(-c3cc(C)no3)s2)c1
Cells [2]
  EC50: > 350 µM (not active)
Cells [3]
  EC50: > 350 µM (not active)

## Clc1ccc(CSc2ccc(-c3ccccn3)nn2)cc1
Cells [2]
  EC50: 12.5 µM (active)
INS1
  AC50: 5.06 µM (active)
[14]
  EC50: > 30 µM (not active)
[15]
  EC50: 1.84 µM (active)
Cells [3]
  EC50: 43.7 µM (active)

## CCS(=O)(=O)c1ccc(-c2cccc(NC(=O)COc3ccccc3)c2)nn1
Cells [2]
  EC50: > 350 µM (not active)
Cells [3]
  EC50: > 350 µM (not active)

## CSc1nc(Sc2ccccc2Cl)c2ccccc2n1
[11]
  EC50: > 79.4 µM (not active)
[12]
  EC50: > 79.4 µM (not active)
[13]
  EC50: > 79.4 µM (inactive)

## COCCn1c(C)cc(C(=O)CN2C(=O)NC3(CCCCCCC3)C2=O)c1C
H4
  EC50: 8.28 µM (active)
[5]
  EC50: 0.94 µM (active)
[16]
  EC50: 0.283 µM (active)

## CCc1ccc(Nc2c([N+](=O)[O-])nn(-c3ccccc3)[n+]2[O-])cc1
Nonstructural protein 1
  IC50: 81.8 µM (active)
[14]
  EC50: > 60 µM (not active)
[15]
  EC50: 0.461 µM (active)

## Cc1cccc(/C=C/C(=O)c2ccc(NC3=NCCCS3)cc2)c1
H4
  EC50: > 120 µM (not active)
[5]
  EC50: 23.3 µM (active)
[14]
  EC50: > 60 µM (not active)
[15]
  EC50: 2.23 µM (active)
Protein skinhead-1
  IC50: 19.9 µM (active)
[16]
  EC50: 9.88 µM (active)

## COc1ccc(N=Nc2cnc(C)nc2-c2ccccc2)cc1
Nonstructural protein 1
  IC50: 43.8 µM (active)

## COc1ccc(OC)c(-c2csc(NC(=O)Cc3ccccc3OC)n2)c1
[1]
  CC50: 25.3 µM (active)

## Cc1ccc(CNC(=O)CSc2c3c(nc4cc(Cl)ccc24)CCCC3)o1
[11]
  EC50: > 79.4 µM (not active)
[12]
  EC50: > 79.4 µM (not active)
[13]
  EC50: > 79.4 µM (inactive)

## COc1cccc2[nH]c3c(N4CCc5ccccc5C4)ncnc3c12
[1]
  CC50: > 50 µM (active)

## CC(C)c1ccc(NC(=O)[C@@H]2CCC(=O)N2C2OC(=O)c3ccccc32)cc1 (some centres not stated)
H4
  EC50: 38.2 µM (active)
[5]
  EC50: 0.143 µM (active)
[16]
  EC50: 24.5 µM (active)

## CCOC(=O)c1sc(-c2ccc(OC)cc2)cc1NC(C)=O
[11]
  EC50: > 79.4 µM (not active)
[12]
  EC50: 22 µM (not active)
[13]
  EC50: > 79.4 µM (inactive)

## Cc1ccc2[nH]c(SCC(=O)c3ccc(O)cc3O)nc2c1
H4
  EC50: 52.9 µM (active)
[5]
  EC50: 9.48 µM (active)
[16]
  EC50: 16.5 µM (active)

## O=C(Nc1ccc2c(c1)nc1n2CCN(Cc2ccccc2)C1)c1cccs1
H4
  EC50: > 120 µM (not active)
[5]
  EC50: 17.2 µM (active)
[16]
  EC50: 13.6 µM (active)

## COc1ccccc1C(=O)Nc1nnc(CCc2ccccc2)s1
H4
  EC50: > 120 µM (not active)
[5]
  EC50: > 120 µM (not active)
[16]
  EC50: 8.71 µM (active)

## CN1CCN(C(=O)CSc2cc(=O)n(C)c3ccccc23)CC1
[11]
  EC50: > 79.4 µM (not active)
[12]
  EC50: > 79.4 µM (not active)
[13]
  EC50: > 79.4 µM (inactive)

## COc1ccc(-c2csc(NCCc3nc4cc(Cl)c(Cl)cc4n3CCCO)n2)cc1
[1]
  CC50: 19.6 µM (active)

## CCCOc1ccc(/C=N/Nc2ccccc2[N+](=O)[O-])c(OCCC)c1
Nonstructural protein 1
  IC50: 7.73 µM (active)

## Cc1ccc(-c2nn(-c3ccccc3)cc2/C=N/NC(=O)CSc2nnc(C)n2-c2ccccc2)cc1
H4
  EC50: 16.6 µM (active)
Streptokinase A
  EC50: 65.8 µM (active)
[5]
  EC50: 13.4 µM (active)
[17]
  EC50: 7.47 µM (active)
Streptococcus
  EC50: 33.5 µM (active)
[16]
  EC50: 63.4 µM (active)

## C/C(=N\OC(=O)c1ccc(F)cc1)c1sc(-c2ccccc2)nc1C
[1]
  CC50: > 50 µM (active)

## O=C(O)CN(CC(=O)O)CC(=O)O [NITRILOTRIACETIC ACID]
Nonstructural protein 1
  IC50: 17.7 µM (active)
